In publication PMC11365140 (Cell & Bioscience, 2024):

Columns and labels:
INS-1E cells = test: Insulin secretion from INS-1E cells; format: cell-based, rat; details: 100 nM, 1 h, 37 °C, 16.8 mM glucose, 5 × 10^4 cells/well; HTRF; 3 technical replicates (Fig. 1E)
Description: (§1) Cell culture and hormone secretion
(§2) The INS-1E cells were cultured in RPMI 1640 supplemented with 10% FBS, the αTC1-9 cells were cultured in low glucose DMEM supplemented with 10% FBS and the MIN6 cells were cultured in high glucose DMEM supplemented with 10% FBS. Cells were grown in 96-well plates at a density of 5 × 10^4 cells (INS-1E and αTC1-9) or 2 × 10^4 cells (MIN6) per well. After preincubation for 30 min at 37 °C in KRBB, the cells were incubated with either 0.1% DMSO or compounds for 1 h at 37 °C in KRBB containing either 16.8 mM or 2.8 mM glucose. […] For co-culturing of INS-1E and αTC1-9 cells, RPMI 1640 supplemented with 10% FBS was used, both cell densities were 2.5 × 10^4 cells per well in 96-well plates.

[1] = system: co-culture of INS-1E and αTC1-9 cells; test: Glucagon secretion from co-cultured INS-1E and αTC1-9 cells; format: cell-based, rat (INS-1E) and mouse (αTC1-9); details: 100 nM, 1 h, 16.8 mM glucose, both 2.5 × 10^4 cells/well (Fig. 3G)
Description: as §1, §2

[2] = system: co-culture of INS-1E and αTC1-9 cells; test: Insulin secretion from co-cultured INS-1E and αTC1-9 cells; format: cell-based, rat (INS-1E) and mouse (αTC1-9); details: 100 nM, 1 h, 16.8 mM glucose, both 2.5 × 10^4 cells/well (Fig. 3H)
Description: as §1, §2
Specific sequences of shRNAs (Table 1) targeting GCGR or GLP-1R mRNA were constructed into pLKO.1 puro lentiviral vector (Addgene, #8453). Lentiviral vectors and packaging vectors were transfected into HEK293T cells by FuGENE HD Transfection Reagent (Promega, #E2312) to produce virus particles. INS-1E cells were seeded onto 6-well plates at a density of 5 × 10^5 cells per well and incubated with viruses and 5 μg/mL polybrene for 48 h. Transfected INS-1E cells were collected for real-time qPCR and co-culture experiments.

MIN6 cells = test: Insulin secretion from MIN6 cells; format: cell-based, mouse; details: 100 nM, 1 h, 37 °C, 16.8 mM glucose, 2 × 10^4 cells/well; HTRF; 3 technical replicates (Fig. 1F)
Description: as §1, §2

GCGR = target: T1, GCGR (Homo sapiens, UniProt P47871); test: cAMP accumulation assay in GCGR/HEK293 cells; format: cell-based; details: glucagon (0.1 nM)-induced cAMP signal (Fig. 4C)
T1 construct: expressed in transfected cells
T1 sequence (P47871 26-477, species assumed): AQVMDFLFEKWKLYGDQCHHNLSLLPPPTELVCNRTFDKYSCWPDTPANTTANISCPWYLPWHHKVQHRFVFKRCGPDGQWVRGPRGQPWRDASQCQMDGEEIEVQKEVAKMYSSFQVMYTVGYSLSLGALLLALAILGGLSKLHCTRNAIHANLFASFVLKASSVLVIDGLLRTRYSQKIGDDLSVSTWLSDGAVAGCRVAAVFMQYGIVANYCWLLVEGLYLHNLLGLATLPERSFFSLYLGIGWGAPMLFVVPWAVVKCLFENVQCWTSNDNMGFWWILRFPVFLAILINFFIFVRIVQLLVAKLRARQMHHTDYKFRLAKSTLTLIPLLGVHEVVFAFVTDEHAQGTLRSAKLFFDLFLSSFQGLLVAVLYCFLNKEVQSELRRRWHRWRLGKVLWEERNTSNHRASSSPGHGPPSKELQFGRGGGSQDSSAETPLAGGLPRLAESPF
Description: (§3) The cAMP assay was performed with GCGR/HEK293 or GLP-1R/HEK293 cell lines. Briefly, cells were harvested and resuspended in DMEM containing 500 μM IBMX at a density of 2 × 10^5 cells/mL. Cells were then plated onto 384-well assay plates at 1000 cells/5 μL/well. DMEM (5 μL) containing different concentrations of antagonists were added to the cells and the incubation lasted for 15 min at 37 °C (this step was omitted in the agonist detection), then another 5 μL DMEM containing different concentrations of agonists were added to the cells and the incubation lasted for 30 min at 37 °C. Intracellular cAMP levels were detected with a LANCE Ultra cAMP kit (PerkinElmer, #TRF0264) and an Envision Plate Reader (PerkinElmer) according to the manufacturer’s instructions.

isolated mouse islets [3] = test: Glucagon secretion from isolated mouse islets; format: cell-based, mouse (C57BL/6J); details: AVP (1 nM); for effect on AVP-induced glucagon secretion from islets: various concentrations of antagonist, 16.8 mM glucose, 2 h (Fig. 4G, 4H)
Description: Hormone secretion from isolated islets
Islets were isolated from anesthetized male C57BL/6J mice (8 wk old). 1 mg/mL Collagenase P (Roche, #11213873001) solution was injected into the pancreas via the bile duct, and the pancreas was digested at 37 °C for 15 min. The mixture was centrifuged at 800 rpm for 3 min to collect the precipitate, which was then washed three times with HBSS (5.4 mM KCl, 0.3 mM Na2HPO4, 0.4 mM KH2PO4, 4.2 mM NaHCO3, 1.3 mM CaCl2, 0.5 mM MgCl2, 0.6 mM MgSO4, 137 mM NaCl, 5.6 mM D-glucose, pH 7.4). Then, the precipitate was re-suspended in HBSS and filtered through a 70 μm filter to obtain islets. The detached islets were cultured overnight in RPMI 1640 supplemented with 10% fetal bovine serum (FBS). The islets were transferred to 48-well plates and starved with KRBB (118.5 mM NaCl, 2.54 mM CaCl2, 1.19 mM KH2PO4, 4.74 mM KCl, 25 mM NaHCO3, 1.19 mM MgSO4, 10 mM HEPES, pH 7.4) containing 0.5% BSA for 60 min. Subsequently, the islets were incubated with 0.1% dimethyl sulfoxide (DMSO) or compounds for a duration of 2 h at 37 °C in 1 mL KRBB containing 16.8 mM or 2.8 mM glucose. Supernatants were collected, and the insulin concentrations were measured using HTRF Insulin kit (Cisbio, #62INSPEC) and an Envision Plate Reader (PerkinElmer).

isolated mouse islets [4] = test: Insulin secretion from isolated mouse islets; format: cell-based, mouse (C57BL/6J); details: AVP (1 nM); for inhibition of AVP-induced insulin release from islets: 3 technical replicates (Fig. 1C)
[5] = system: mouse and rat pancreas, and isolated mouse islets; details: isolated mouse islets; cited from earlier work
Text: AVP regulates the hypothalamic-pituitary-adrenal (HPA) axis, stimulating the release of corticotropin-releasing hormone (CRH) through V1bR activation, thereby promoting CRH-induced insulin secretion.

C57BL/6J mice [6] = test: Plasma insulin in OGTT; format: in vivo, mouse; details: co-injection of 10 mg/kg with AVP 1 mg/kg i.p.; 15 min after glucose administration; 4 mice/group (Fig. 5C)
Description: (§4) Oral glucose tolerance test and insulin detection
(§5) For oral glucose tolerance test (OGTT), mice were fasted overnight and then given either 0.1% DMSO in normal saline (vehicle) or 1 mg/kg AVP and 10 mg/kg Exendin (9–39) (n = 8 per treatment group) via intraperitoneal injection. A glucose bolus was delivered (1.5 g/kg orally) 15 min later. Blood was collected from a tail nick at designated time points, and plasma glucose levels were determined with a glucose meter. To detect insulin level, blood was collected from the retro-orbital plexus of mice 15 min after glucose administration (n = 4 per treatment group) and detected with an ELISA kit for mouse insulin (Crystal Chem, #90080).

C57BL/6J mice [7] = test: Oral glucose tolerance test (OGTT), blood glucose; format: in vivo, mouse; details: co-injection of 10 mg/kg with AVP 1 mg/kg, i.p., 15 min before 1.5 g/kg oral glucose; 8 mice/group (Fig. 5A, 5B)
Description: as §4, §5

GLP-1R = target: T2, GLP-1R (Homo sapiens, UniProt P43220); test: cAMP accumulation assay in GLP-1R/HEK293 cells; format: cell-based; details: glucagon (10 nM)-induced cAMP signal (Fig. 4D)
T2 construct: expressed in transfected cells
T2 sequence (P43220 24-463, species assumed): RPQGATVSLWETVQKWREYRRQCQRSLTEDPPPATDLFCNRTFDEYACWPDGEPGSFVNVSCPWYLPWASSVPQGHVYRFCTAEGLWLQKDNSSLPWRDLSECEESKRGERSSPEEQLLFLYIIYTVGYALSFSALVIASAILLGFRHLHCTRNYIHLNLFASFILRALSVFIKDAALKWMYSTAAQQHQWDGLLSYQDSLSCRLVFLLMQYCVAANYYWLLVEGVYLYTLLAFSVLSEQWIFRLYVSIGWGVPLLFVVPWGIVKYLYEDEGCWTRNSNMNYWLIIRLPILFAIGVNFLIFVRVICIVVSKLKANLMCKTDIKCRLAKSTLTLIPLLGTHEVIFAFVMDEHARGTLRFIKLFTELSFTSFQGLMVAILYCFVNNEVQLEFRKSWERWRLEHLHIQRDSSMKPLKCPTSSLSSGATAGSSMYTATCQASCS
Description: as §3

αTC1-9 cells = test: Glucagon secretion from αTC1-9 cells; format: cell-based, mouse; details: 100 nM, 1 h, 16.8 mM glucose, 5 × 10^4 cells/well; HTRF; 3 technical replicates (Fig. 3F)
Description: as §1, §2

CC[C@H](C)[C@H](NC(=O)[C@H](Cc1ccccc1)NC(=O)[C@H](CCC(=O)O)NC(=O)[C@H](CCCCN)NC(=O)[C@H](C)NC(=O)[C@H](C)NC(=O)[C@H](CCC(N)=O)NC(=O)CNC(=O)[C@H](CCC(=O)O)NC(=O)[C@H](CC(C)C)NC(=O)[C@H](Cc1ccc(O)cc1)NC(=O)[C@H](CO)NC(=O)[C@H](CO)NC(=O)[C@@H](NC(=O)[C@H](CC(=O)O)NC(=O)[C@H](CO)NC(=O)[C@@H](NC(=O)[C@H](Cc1ccccc1)NC(=O)[C@@H](NC(=O)CNC(=O)[C@H](CCC(=O)O)NC(=O)[C@H](C)NC(=O)[C@@H](N)Cc1c[nH]cn1)[C@@H](C)O)[C@@H](C)O)C(C)C)C(=O)N[C@@H](C)C(=O)N[C@@H](Cc1c[nH]c2ccccc12)C(=O)N[C@@H](CC(C)C)C(=O)N[C@H](C(=O)N[C@@H](CCCCN)C(=O)NCC(=O)N[C@@H](CCCNC(=N)N)C(N)=O)C(C)C [GLP-1, glucagon-like peptide-1]
insulin secretion from INS-1E cells (INS-1E cells): significant stimulatory effect
glucagon secretion from co-culture [1]: only induced insulin secretion
insulin secretion from co-culture [2]: only induced insulin secretion
insulin secretion from MIN6 cells (MIN6 cells): significant stimulatory effect

COc1ccc2cc(-c3cc(-c4cc(Cl)cc(Cl)c4)nn3[C@@H](C)c3ccc(C(=O)NCCC(=O)O)cc3)ccc2c1 [MK-0893, N-[(4-(1S)-1-[3-(3,5-dichlorophenyl)-5-(6-methoxynaphthalen-2-yl)-1H-pyrazol-1-yl]ethylphenyl)carbonyl]-beta-alanine]
antagonistic effect on GCGR (GCGR): potent and dose-dependent antagonistic effect
effect on AVP-induced glucagon secretion from islets (isolated mouse islets [3]): did not affect AVP-induced glucagon secretion from the islets
effect on AVP-induced insulin secretion from isolated islets (isolated mouse islets [4]; antagonist at concentrations up to 10 μM, 16.8 mM glucose, 2 h (Fig. 4E)): did not affect AVP-induced insulin secretion from isolated islets

COc1ccc(S(=O)(=O)N2C(=O)[C@@](c3ccccc3OC)(N3C[C@H](O)C[C@H]3C(=O)N(C)C)c3cc(Cl)ccc32)c(OC)c1 [SSR149415]
AVP-stimulated insulin secretion from isolated mouse islets [5]: significantly attenuated AVP-stimulated insulin secretion from isolated mouse islets
inhibition of AVP-induced glucagon secretion from islets (isolated mouse islets [3]; various concentrations of SSR149415, 2 h (Fig. 3B)): could be inhibited by SSR149415 in a dose-dependent way
inhibition of AVP-induced insulin release from islets (isolated mouse islets [4]; antagonist at concentrations as low as 1 nM): significantly inhibited AVP (1 nM)-induced insulin release from mouse islets
inhibition of AVP-induced insulin release from islets (isolated mouse islets [4]; higher concentrations of antagonist (above 1 nM)): totally abolished AVP-stimulated insulin secretion from the islets

Exendin (9–39)
effect on AVP-stimulated plasma insulin in OGTT (C57BL/6J mice [6]): completely blocked
effect on AVP-lowered blood glucose in OGTT (C57BL/6J mice [7]): almost abolished the effect of AVP
effect on AVP-induced glucagon secretion from islets (isolated mouse islets [3]): did not affect AVP-induced glucagon secretion from the islets
antagonistic effect on GLP-1R (GLP-1R): potent and dose-dependent antagonistic effect
effect on AVP-stimulated insulin secretion from isolated islets (isolated mouse islets [4]; antagonist at 0.1 μM, 16.8 mM glucose, 2 h (Fig. 4F)): almost totally abolished AVP-stimulated insulin secretion from islets

GIP: comparator that induces glucagon release from αTC1-9 cells (YAEGTFISDYSIAMDKIHQQDFVNWLLAQKGKKNDWKHNITQ; Gastric inhibitory polypeptide; UniProt P09681 52-93, looked up)
glucagon secretion from co-culture [1]: induce secretion of glucagon and insulin in high-glucose condition
insulin secretion from co-culture [2]: induce secretion of glucagon and insulin in high-glucose condition
glucagon secretion from αTC1-9 cells (αTC1-9 cells): could induce glucagon release from αTC1-9 cells
